How the values were obtained:
Format in all cases: in vivo
Amaranthus retroflexus [1] = experiment: Pre-emergence herbicidal action, AMARE; set-up: key to Herbicidal action against AMARE: % activity: 100 = plants have died, 0 = like control plants; conditions: for herbicidal action AMARE: dosage 320 g/ha
In short: (§1)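 Herbicidal activity is expressed in percent, scored by eye after a 3-week greenhouse period, with 0% matching untreated plants and 100% meaning death. Compounds, as wettable powders or emulsion concentrates, are applied pre-emergence to the covering soil.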

Echinochloa crus-galli [2] = experiment: Pre-emergence herbicidal action, ECHCG; conditions: for herbicidal action ECHCG: dosage 320 g/ha
In short: as §1

Matricaria inodora [3] = experiment: Pre-emergence herbicidal action, MATIN; conditions: dosage 320 g/ha
In short: as §1

Polygonum convolvulus [4] = experiment: Pre-emergence herbicidal action, POLCO; conditions: for herbicidal action POLCO: dosage 320 g/ha
From the text: (§2) 1. Pre-Emergence Herbicidal Action Against Harmful Plants Seeds of monocotyledonous and dicotyledonous weed plants and crop plants are laid out in sandy loam soil in wood-fiber pots and covered with soil. The compounds of the invention, formulated in the form of wettable powders (WP) or as emulsion concentrates (EC), are then applied to the surface of the covering soil in the form of an aqueous suspension or emulsion at a water application rate equating to 600 to 800 l/ha, with addition of 0.2% wetting agent. After the treatment, the pots are placed in a greenhouse and kept under good growth conditions for the trial plants. The damage to the test plants is scored visually after a test period of 3 weeks by comparison with untreated controls (herbicidal activity in percent (%): 100% activity=the plants have died, 0% activity=like control plants). […] The tables below illustrate, in an exemplary manner, the […] herbicidal action of the compounds according to the invention, the herbicidal activity being stated in percent. [table] In the experiments that follow, herbicidal action of numerous inventive compounds and the known compounds that are structurally closest from D1 (WO 2012/028579 A1) and D2 (WO 2018/202535 A1) were compared under the above-specified conditions by the pre-emergence and post-emergence method. The example numbers given in the tables relate to the compounds disclosed in the respective documents. In addition to the compounds disclosed in D1 and D2, the following compounds V-1 to V-14 that are encompassed by D1 or D2 but are not compounds specified therein were used in the comparative experiments: • V-1: 2-(methylsulfanyl)-3-(methylsulfinyl)-N-(1-methyl-1H-tetrazol-5-yl)-4-(trifluoromethyl)benzamide • V-2: 2-(methylsulfanyl)-3-(methylsulfonyl)-N-(1-methyl-1H-tetrazol-5-yl)-4-(trifluoromethyl)benzamide • V-3: 2,3-bis(ethylsulfanyl)-N-(1-methyl-1H-tetrazol-5-yl)-4-(trifluoromethyl)benzamide • V-4: 2-chloro-3-(ethylsulfanyl)-N-(1-methyl-1H-tetrazol-5-yl)-4-(trifluoromethyl)benzamide • V-5: 2-chloro-4-iodo-3-(methylsulfanyl)-N-(1-methyl-1H-tetrazol-5-yl)benzamide • V-6: 2-chloro-4-iodo-3-(methylsulfinyl)-N-(1-methyl-1H-tetrazol-5-yl)benzamide • V-7: 2-chloro-4-iodo-3-(methylsulfonyl)-N-(1-methyl-1H-tetrazol-5-yl)benzamide • V-8: 2-bromo-3-(methylsulfanyl)-N-(1-methyl-1H-tetrazol-5-yl)-4-(trifluoromethyl)benzamide • V-9: 2-bromo-3-(methylsulfinyl)-N-(1-methyl-1H-tetrazol-5-yl)-4-(trifluoromethyl)benzamide • V-10: 2-bromo-3-(methylsulfonyl)-N-(1-methyl-1H-tetrazol-5-yl)-4-(trifluoromethyl)benzamide • V-11: 2-bromo-3-(ethylsulfanyl)-N-(1-methyl-1H-tetrazol-5-yl)-4-(trifluoromethyl)benzamide • V-12: 2-bromo-3-(ethylsulfinyl)-N-(1-methyl-1H-tetrazol-5-yl)-4-(trifluoromethyl)benzamide • V-13: 2-bromo-3-(ethylsulfonyl)-N-(1-methyl-1-1H-tetrazol-5-yl)-4-(trifluoromethyl)benzamide • V-14: 2-cyclopropyl-3-(ethylsulfanyl)-N-(1-methyl-1H-tetrazol-5-yl)-4-(trifluoromethyl)benzamide Herbicidal Pre-Emergence Action: […]

Stellaria media [5] = experiment: Pre-emergence herbicidal action, STEME; set-up: key to Herbicidal action against STEME: % activity: 100 = plants have died, 0 = like control plants; conditions: for herbicidal action STEME: dosage 320 g/ha
From the text: as §2

Veronica persica [6] = experiment: Pre-emergence herbicidal action, VERPE; set-up: key to Herbicidal action against VERPE: % activity: 100 = plants have died, 0 = like control plants; conditions: for herbicidal action VERPE: dosage 320 g/ha
In short: as §1

Viola tricolor [7] = experiment: Pre-emergence herbicidal action, VIOTR; conditions: dosage 320 g/ha
In short: as §1

Abutilon theophrasti = experiment: Post-emergence herbicidal action, ABUTH; set-up: key: % herbicidal action vs untreated; 100 = plants died, 0 = like control
In short: (§3)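 Greenhouse weeds grown in sandy loam were sprayed at the one-leaf stage, 2–3 weeks after sowing, with WP or EC formulations at 600–800 l/ha water plus 0.2% wetting agent. Damage scored visually about 3 weeks later, in percent against untreated controls (100% = plants dead).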

Amaranthus retroflexus [8] = experiment: Post-emergence herbicidal action, AMARE; set-up: key: % herbicidal action vs untreated; 100 = plants died, 0 = like control; conditions: for Herbicidal action against AMARE: post-emergence, dosage 80 g/ha
In short: as §3

Echinochloa crus-galli [9] = experiment: Post-emergence herbicidal action, ECHCG; set-up: key: % herbicidal action vs untreated; 100 = plants died, 0 = like control; conditions: for Herbicidal action against ECHCG: post-emergence, dosage 80 g/ha
In short: as §3

Pharbitis purpurea [10] = experiment: Post-emergence herbicidal action, PHBPU; conditions: for Herbicidal action against PHBPU: post-emergence, dosage 80 g/ha
In short: as §3

Polygonum convolvulus [11] = experiment: Post-emergence herbicidal action, POLCO; conditions: for Herbicidal action against POLCO: post-emergence, dosage 80 g/ha
Description: (§4) [table] 2. Post-Emergence Herbicidal Action Against Harmful Plants Seeds of monocotyledonous and dicotyledonous weed and crop plants are laid out in sandy loam soil in wood-fiber pots, covered with soil and cultivated in a greenhouse under good growth conditions. 2 to 3 weeks after sowing, the test plants are treated at the one-leaf stage. The compounds of the invention, formulated in the form of wettable powders (WP) or as emulsion concentrates (EC), are then sprayed onto the green parts of the plants in the form of an aqueous suspension or emulsion at a water application rate equating to 600 to 800 l/ha, with addition of 0.2% wetting agent. After the test plants have been left to stand in the greenhouse under optimal growth conditions for about 3 weeks, the action of the preparations is assessed visually in comparison to untreated controls (herbicidal action in percent (%): 100% activity=the plants have died, 0% activity=like control plants). […] The tables below illustrate, in an exemplary manner, the post-emergence herbicidal action of the compounds according to the invention, the herbicidal activity being stated in percent. In the experiments that follow, herbicidal action of numerous inventive compounds and the known compounds that are structurally closest from D1 (WO 2012/028579 A1) and D2 (WO 2018/202535 A1) were compared under the above-specified conditions by the pre-emergence and post-emergence method. The example numbers given in the tables relate to the compounds disclosed in the respective documents. In addition to the compounds disclosed in D1 and D2, the following compounds V-1 to V-14 that are encompassed by D1 or D2 but are not compounds specified therein were used in the comparative experiments: • V-1: 2-(methylsulfanyl)-3-(methylsulfinyl)-N-(1-methyl-1H-tetrazol-5-yl)-4-(trifluoromethyl)benzamide • V-2: 2-(methylsulfanyl)-3-(methylsulfonyl)-N-(1-methyl-1H-tetrazol-5-yl)-4-(trifluoromethyl)benzamide • V-3: 2,3-bis(ethylsulfanyl)-N-(1-methyl-1H-tetrazol-5-yl)-4-(trifluoromethyl)benzamide • V-4: 2-chloro-3-(ethylsulfanyl)-N-(1-methyl-1H-tetrazol-5-yl)-4-(trifluoromethyl)benzamide • V-5: 2-chloro-4-iodo-3-(methylsulfanyl)-N-(1-methyl-1H-tetrazol-5-yl)benzamide • V-6: 2-chloro-4-iodo-3-(methylsulfinyl)-N-(1-methyl-1H-tetrazol-5-yl)benzamide • V-7: 2-chloro-4-iodo-3-(methylsulfonyl)-N-(1-methyl-1H-tetrazol-5-yl)benzamide • V-8: 2-bromo-3-(methylsulfanyl)-N-(1-methyl-1H-tetrazol-5-yl)-4-(trifluoromethyl)benzamide • V-9: 2-bromo-3-(methylsulfinyl)-N-(1-methyl-1H-tetrazol-5-yl)-4-(trifluoromethyl)benzamide • V-10: 2-bromo-3-(methylsulfonyl)-N-(1-methyl-1H-tetrazol-5-yl)-4-(trifluoromethyl)benzamide • V-11: 2-bromo-3-(ethylsulfanyl)-N-(1-methyl-1H-tetrazol-5-yl)-4-(trifluoromethyl)benzamide • V-12: 2-bromo-3-(ethylsulfinyl)-N-(1-methyl-1H-tetrazol-5-yl)-4-(trifluoromethyl)benzamide • V-13: 2-bromo-3-(ethylsulfonyl)-N-(1-methyl-1-1H-tetrazol-5-yl)-4-(trifluoromethyl)benzamide • V-14: 2-cyclopropyl-3-(ethylsulfanyl)-N-(1-methyl-1H-tetrazol-5-yl)-4-(trifluoromethyl)benzamide Herbicidal Pre-Emergence Action: […]

Stellaria media [12] = experiment: Post-emergence herbicidal action, STEME; set-up: key: % herbicidal action vs untreated; 100 = plants died, 0 = like control; conditions: for Herbicidal action against STEME: post-emergence, dosage 80 g/ha
In short: as §3

Veronica persica [13] = experiment: Post-emergence herbicidal action, VERPE; set-up: key: % herbicidal action vs untreated; 100 = plants died, 0 = like control; conditions: for Herbicidal action against VERPE: post-emergence, dosage 80 g/ha
In short: as §3

Viola tricolor [14] = experiment: Post-emergence herbicidal action, VIOTR; set-up: key: % herbicidal action vs untreated; 100 = plants died, 0 = like control; conditions: for Herbicidal action against VIOTR: post-emergence, dosage 80 g/ha
In short: as §3

Pharbitis purpurea [15] = experiment: Pre-emergence herbicidal action, PHBPU; conditions: comparative experiment, 20 g of a.i./ha
From the text: as §2

Alopecurus myosuroides = experiment: Post-emergence herbicidal action, ALOMY; set-up: key: % herbicidal action vs untreated; 100 = plants died, 0 = like control; conditions: Dosage 80 g/ha
Description: as §4

Matricaria inodora [16] = experiment: Post-emergence herbicidal action, MATIN; set-up: key: % herbicidal action vs untreated; 100 = plants died, 0 = like control
In short: as §3

Setaria viridis [17] = experiment: Post-emergence herbicidal action, SETVI; set-up: key: % herbicidal action vs untreated; 100 = plants died, 0 = like control
In short: as §3

Setaria viridis [18] = experiment: Pre-emergence herbicidal action, SETVI; set-up: key to Herbicidal action against SETVI: % activity: 100 = plants have died, 0 = like control plants
From the text: as §2

[19] = comparative experiment, 20 g of a.i./ha

Compound | herbicidal action AMARE (Amaranthus retroflexus [1]) [%] | herbicidal action ECHCG (Echinochloa crus-galli [2]) [%] | herbicidal action MATIN (Matricaria inodora [3]) [%] | herbicidal action POLCO (Polygonum convolvulus [4]) [%] | herbicidal action STEME (Stellaria media [5]) [%] | herbicidal action VERPE (Veronica persica [6]) [%] | Herbicidal action against AMARE (Amaranthus retroflexus [8]) | Herbicidal action against ECHCG (Echinochloa crus-galli [9]) | Herbicidal action against PHBPU (Pharbitis purpurea [10]) | Herbicidal action against POLCO (Polygonum convolvulus [11]) | Herbicidal action against STEME (Stellaria media [12]) | Herbicidal action against VERPE (Veronica persica [13]) | Herbicidal action against VIOTR (Viola tricolor [14]) | also measured
CCS(=O)(=O)Cc1c(C(F)F)ccc(C(=O)Nc2nnnn2C)c1S(=O)(=O)CC [Example 1-229] | 100 | 100 | 90 | 100 | 100 | 100 | 80 | 90 | 80 | 80 | 100 | 90 | 90 | herbicidal action VIOTR (Viola tricolor [7]): 100%; Herbicidal action against ABUTH (Abutilon theophrasti; post-emergence, dosage 80 g/ha): 100
CCSCc1c(C(F)(F)F)ccc(C(=O)Nc2nnnn2C)c1C1CC1 [Example 1-517] |  |  |  |  |  |  |  |  |  |  |  |  |  | Herbicidal action against PHBPU (Pharbitis purpurea [15]): 60
CCn1nnnc1NC(=O)c1ccc(C)c(C[S+](C)[O-])c1Cl (stereo not drawn) [Example 2-288] | 100 | 100 | 90 |  | 90 | 100 |  |  |  |  |  |  |  | herbicidal action ABUTH (Abutilon theophrasti; Dosage 80 g/ha): 90; herbicidal action ALOMY (Alopecurus myosuroides): 80; herbicidal action AMARE (Amaranthus retroflexus [8]; Dosage 80 g/ha): 100; herbicidal action ECHCG (Echinochloa crus-galli [9]; Dosage 80 g/ha): 90; herbicidal action MATIN (Matricaria inodora [16]; Dosage 80 g/ha): 90; herbicidal action PHBPU (Pharbitis purpurea [10]; Dosage 80 g/ha): 90; herbicidal action POLCO (Polygonum convolvulus [11]; Dosage 80 g/ha): 90; herbicidal action SETVI (Setaria viridis [17]; Dosage 80 g/ha): 90; herbicidal action STEME (Stellaria media [12]; Dosage 80 g/ha): 100; herbicidal action VERPE (Veronica persica [13]; Dosage 80 g/ha): 100; herbicidal action VIOTR (Viola tricolor [14]; Dosage 80 g/ha): 80
CCn1nnnc1NC(=O)c1ccc(C)c(CS(C)(=O)=O)c1Cl [Example 2-289] | 100 | 100 | 100 | 80 | 90 | 90 | 100 | 100 | 90 | 80 | 100 | 90 | 80 | herbicidal action SETVI (Setaria viridis [18]; dosage 320 g/ha): 100%; Herbicidal action against MATIN (Matricaria inodora [16]; post-emergence, dosage 80 g/ha): 100; Herbicidal action against SETVI (Setaria viridis [17]; post-emergence, dosage 80 g/ha): 100
Cn1nnnc1NC(=O)c1ccc(I)c(S(C)(=O)=O)c1Cl [Example V-7, 2-chloro-4-iodo-3-(methylsulfonyl)-N-(1-methyl-1H-tetrazol-5-yl)benzamide, reference compound] |  |  |  |  |  |  |  |  |  |  |  |  |  | Herbicidal action against AMARE (Amaranthus retroflexus [1]; [19]): 30; pest or weed control at 20 g/ha (Echinochloa crus-galli [2]; Echinochloa crus-galli, 504 h, comparative experiment, 20 g of a.i./ha, read-out: Herbicidal action against ECHCG): 10%; Herbicidal action against POLCO (Polygonum convolvulus [4]; [19]): 0; Herbicidal action against SETVI (Setaria viridis [18]; [19]): 0; Herbicidal action against STEME (Stellaria media [5]; [19]): 0; Herbicidal action against VERPE (Veronica persica [6]; [19]): 40

From patent publication US12492173B2, “Herbicidal substituted N-tetrazolyl aryl carboxamides” (Bayer Aktiengesellschaft, priority 2019, dated 2025)
